Measurements published in US20210115509A1, “BIOMARKER FOR IDENTIFYING SPECIFIC EXPOSURE TO KETONES AND METHOD OF IDENTIFICATION USING THE SAME” (KOREA INSTITUTE OF SCIENCE AND TECHNOLOGY, priority 2019, published 2021).

Assays:
[1] = tested on: BEAS-2B human bronchial epithelial cell line; test: MTT assay, cytotoxicity of ketone compounds in BEAS-2B cell line; format: cell-based; settings: BEAS-2B, 48 hours, MTT
Protocol: BEAS-2B (Korean Cell Line Bank), a human bronchial epithelial cell line, was cultured using RPMI 1640 medium (Gibco, USA) supplemented with 10% FBS until the cells grew to about a confluence of 70 to 80% in a 100 mm dish.
Among ketones belonging to mVOCs (microbial volatile organic compounds) exposed to the environment, acetone, 2-butanone, 2-pentanone, 2-hexanone and 2-heptanone were selected, and the chemicals were dissolved in filtered distilled water (DW). A vehicle concentration was set to 0.1% or less in all experiments.
MTT assay using a BEAS-2B cell line was performed in accordance with the method of Mossman et al. (J. Immunol. Methods, 65, 55-63, 1983).
Specifically, the cells were seeded at a density of 3.5×10^4 cells/well in a 24-well plate and treated with the five ketone compounds dissolved in filtered distilled water, prepared in Example 1-2. After 48 hours, the result was mixed with 5 mg/ml of MTT (3-4,5-dimethylthiazol-2,5-diphenyltetrazolium bromide), added to a tube and incubated at 37° C. for 3 hours. Then, the medium was removed, the formed formazan crystal was dissolved in 500 μl of DMSO, and then 100 μl of the solution was transferred to a 96-well plate to measure an OD (optical density) value at 540 nm.

[2] = tested on: BEAS-2B human bronchial epithelial cell line; test: Gene expression change by high-throughput RNA sequencing (NextSeq 500) in ketone-exposed BEAS-2B cells; format: cell-based
Protocol: RNA was extracted from cell samples of ketone-exposed and non-ketone-exposed groups using a TRIzol reagent (Life Technologies, USA) in accordance with the manufacturer's directions to isolate total RNA and the total RNA was purified using a RNeasy mini kit (Qiagen, USA). The concentration of each total RNA sample was determined by a ND-2000 spectrophotometer (Thermo Inc., DE, USA) as a spectrophotometer and Agilent 2100 Bioanalyzer (Agilent Technologies, USA).
The establishment of libraries from the total RNA obtained in Example 2-1 in the experimental group and the normal control group exposed to the ketones was carried out using a QuantSeq 3′ mRNA-Seq Library Prep Kit (Lexogen, Inc., Austria) in accordance with the manufacturer's directions. 500 ng of the total RNA was hybridized with an oligo-dT primer including an Illumina-compatible sequence at the 5′ end of RNA, followed by reverse transcription. After degradation of the RNA template, a second strand was synthesized using a random primer including an Illumina-compatible linker sequence at the 5′ end thereof. Double-stranded libraries were purified using magnetic beads to remove all reaction components. The library was amplified in order to add the entire adapter sequence required for cluster production, and the completed cDNA library was purified from the PCR components.
Sequencing was performed by high-throughput sequencing as single-end 75 sequencing using a NextSeq 500 (IIlumina, Inc., USA). Read count (RC) data was processed based on the quantile normalization method using EdgeR in R (R development Core Team, 2016) using Bioconductor (Gentleman et al., 2004). Gene classification was based on searches performed on DAVID (http://david.abcc.ncifcrf.gov/) and the Medline database (http://www.ncbi.nlm.nih.gov/).
The extracted data were analyzed through normalization using Agilent GeneSpring GX 12.6.1 (Agilent technologies, CA, USA) to analyze the expression pattern of each gene.

[3] = IC5 conc.: Acetone 5.38, 2-Butanone 22.27, 2-Pentanone 5.24, 2-Hexanone 14.82, 2-Heptanone 5.05 mM
[4] = IC20 conc.: Acetone 71.90, 2-Butanone 106.21, 2-Pentanone 39.38, 2-Hexanone 52.51, 2-Heptanone 20.22 mM

SMILES: CC(C)=O [Acetone, acetone]
- concentration (105) providing a survival rate (viability) of 95% [1]: 5380 µM
- concentration (1020) providing a survival rate (viability) of 80% [1]: 71900 µM
- Fold change ADRA2A (NM_000681) [2, 3]: 0.179
- Fold change ATRNL1 (NR_074088) [2, 3]: 3.000
- Fold change C12orf79 (NR_046159) [2, 3]: 0.213
- Fold change C14orf80 (NR_046159) [2, 3]: 0.354
- Fold change CALML3 (NM_001286399) [2, 3]: 0.354
- Fold change CCDC184 (NM_001013635) [2, 3]: 12.166
- Fold change CD37 (NM_001040031) [2, 3]: 2.781
- Fold change CDHR1 (NM_001171971) [2, 3]: 0.409
- Fold change CHL1 (NM_001253387) [2, 3]: 0.224
- Fold change COL4A3 (NM_000091) [2, 3]: 4.046
- Fold change CRLF2 (NM_022148) [2, 3]: 0.355
- Fold change CSF3R (NM_172313) [2, 3]: 0.354
- Fold change DNMBP-AS1 (NR_024130) [2, 3]: 2.455
- Fold change EGR1 (NM_001964) [2, 3]: 0.422
- Fold change GNA14 (NM_004297) [2, 3]: 5.492
- Fold change LOC728752 (NR_036504) [2, 3]: 4.554
- Fold change PAX8 (NM_003466) [2, 3]: 2.753
- Fold change PRRT3-AS1 (NR_046734) [2, 3]: 2.261
- Fold change RBP3 (NM_002900) [2, 3]: 0.354
- Fold change SEPT14 (NM_207366) [2, 3]: 0.214
- Fold change SERPINA12 (NM_001304461) [2, 3]: 0.354
- Fold change SLC13A4 (NM_012450) [2, 3]: 10.528
- Fold change SPOCK2 (NM_001244950) [2, 3]: 5.291
- Fold change TSPAN1 (NM_005727) [2, 3]: 5.935
- Fold change USP12-AB1 (NR_046647) [2, 3]: 3.620
- Fold change VIPR†-AS1 (NR_046654) [2, 3]: 0.354
- Fold change XIRP1 (NM_001198621) [2, 3]: 0.354
- Fold change ZFP69B (NM_023070) [2, 3]: 2.708
- Fold change ZNF432 (NM_014650) [2, 3]: 4.647
- Fold change ZNF487 (NR_026693) [2, 3]: 0.354
- Fold change ADRA2A (NM_000681) [2, 4]: 0.355
- Fold change ATRNL1 (NR_074088) [2, 4]: 2.751
- Fold change C12orf79 (NR_046159) [2, 4]: 0.213
- Fold change C14orf80 (NR_046159) [2, 4]: 0.354
- Fold change CALML3 (NM_001286399) [2, 4]: 0.354
- Fold change CCDC184 (NM_001013635) [2, 4]: 4.927
- Fold change CD37 (NM_001040031) [2, 4]: 2.526
- Fold change CDHR1 (NM_001171971) [2, 4]: 0.429
- Fold change CHL1 (NM_001253387) [2, 4]: 0.360
- Fold change COL4A3 (NM_000091) [2, 4]: 2.490
- Fold change CRLF2 (NM_022148) [2, 4]: 0.357
- Fold change CSF3R (NM_172313) [2, 4]: 0.358
- Fold change DNMBP-AS1 (NR_024130) [2, 4]: 5.285
- Fold change EGR1 (NM_001964) [2, 4]: 0.437
- Fold change GNA14 (NM_004297) [2, 4]: 2.289
- Fold change LOC728752 (NR_036504) [2, 4]: 4.939
- Fold change PAX8 (NM_003466) [2, 4]: 5.800
- Fold change PRRT3-AS1 (NR_046734) [2, 4]: 2.061
- Fold change RBP3 (NM_002900) [2, 4]: 0.376
- Fold change SEPT14 (NM_207366) [2, 4]: 0.214
- Fold change SERPINA12 (NM_001304461) [2, 4]: 0.354
- Fold change SLC13A4 (NM_012450) [2, 4]: 12.386
- Fold change SPOCK2 (NM_001244950) [2, 4]: 5.054
- Fold change TSPAN1 (NM_005727) [2, 4]: 2.949
- Fold change USP12-AB1 (NR_046647) [2, 4]: 6.910
- Fold change VIPR†-AS1 (NR_046654) [2, 4]: 0.354
- Fold change XIRP1 (NM_001198621) [2, 4]: 0.354
- Fold change ZFP69B (NM_023070) [2, 4]: 4.454
- Fold change ZNF432 (NM_014650) [2, 4]: 5.319
- Fold change ZNF487 (NR_026693) [2, 4]: 0.354
